In PubChem BioAssay AID1963435 (Molecular Pharmacology Branch, DTP, NCI, 2024):

Test system: PANC-1 complex spheroid growth, percent test/control
Assay: Anticancer human tumor PANC-1 cell line growth inhibition [Asc];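 note: spheroids exposed to agents for 7 days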;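 for viability, T/C: percent viability relative to DMSO vehicle wells taken as 100%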
Settings: for IC50: curve of first compound; for viability, T/C: stronger effect = lower value
Experimental: Multicellular complex tumor spheroid response to apoptosis pathway targeting inhibitors Alrizomadlin, Pelcitoclax, and Dasminapant in combination with a variety of drugs and investigational agents in selected tumor cell lines
The MDM2 inhibitor alrizomadlin, the Bcl-2/Bcl-xL inhibitor pelcitoclax, and the IAPs inhibitor dasminapant were evaluated both individually and in combination with standard of care and investigational anticancer small molecules within a complex spheroid model of solid tumors. . Complex spheroids include a stromal component modeled by human endothelial cells (HUVEC) and fibroblasts modeled by human mesenchymal stem cells (MSCs). The concentration ranges selected for each drug and investigational agent were based upon clinically achievable concentrations if the clinical Cmax of the agent was known.
Compounds. The drugs and investigational agents: alrizomadlin (APG-115; NSC831270), pelcitoclax (APG-1252; NSC835773), dasminapant (APG-1387;NSC834197), TAK-243 (NSC785004), copanlisib (NSC809693), olaparib (NSC753686), talazoparib (NSC767125), cobimetinib (NSC 768068), eltanexor (KPT-8602, NSC 794443), abemaciclib (NSC 768073), sotorasib (NSC818433), adagrasib (NSC 831453), MRTX-1133 (NSC 836407), Iadademestat (ORY1001, NSC 806812), and RMC-4630 (NSC839698), were obtained from the NCI Developmental Therapeutics Program Chemical Repository. The FDA-approved anticancer drug set is available from the Developmental Therapeutics Program at https://dtp.cancer.gov/organization/dscb/obtaining/available plates.htm. […] The stock solutions were prepared in dimethyl sulfoxide (DMSO, Sigma-Aldrich, St. Louis, MO, cat. D2650) at 800-fold the tested concentration and stored at -70 degrees C prior to their use. All drugs and investigational agents were tested over a range starting from a high concentration at or near the clinical Cmax and decreasing in half-log increments. If the clinical Cmax for an agent had not been determined, the highest concentration tested was 10 microM.
The patient-derived cancer (PDC) cell lines include five colon adenocarcinomas: 186277-243-T-J2-PDC, 616215-338-R-J1-PDC, 439559-082-T-J2-PDC, 463943-066-T-J2-PDC, and 519858-162-T-J1-PDC; three pancreatic carcinomas: 323965-272-R-J2-PDC, 521955-158-R6-J3-PDC, and 521955-158-R2-J5-PDC; two uterine sarcomas: 327498-152-R-J2-PDC and 993429-296-R-J1-PDC; two rhabdomyosarcomas: 755483-174-R-J1-PDC and 772245-204-R-J1-PDC; two soft tissue sarcomas: 126254-015-R-J1-PDC and 494315-158-R-J1-PDC; two malignant fibrous histiocytomas: 317291-083-R-J1-PDC and 596521-263-R-J1-PDC; two breast carcinomas: 171881-019-R-J1-PDC and 885512-296-R-J2-PDC; and one ovarian carcinoma: 6556581-035-R-J-PDC were obtained from the NCI PDMR, (https://pdmr.cancer.gov). The established cell lines HSSY-2 synovial sarcoma (RRID:CVCL 8719), SYO-1 synovial sarcoma (RRID:CVCL_7146), MPNST malignant peripheral neural sheath tumor were obtained from the Sloan Kettering Institute. The following established cell lines were purchased from the American Type Culture Collection (ATCC, Manassas, VA), Sor the received from the NCI repository:, PANC-1 pancreatic carcinoma (CRL-1469, RRID:CVCL_0480), OVCAR-5 ovarian carcinoma (RRID:CVCL_1628), OVCAR-8 ovarian carcinoma (RRID:CVCL_1629), , MCF-7 breast carcinoma (CRL-12584, RRID:CVCL_0031), MDA-MB-231 breast carcinoma (CRL-12532, RRID:CVCL_0062), NCI-H1876 small cell lung carcinoma (CRL-5902, RRID:CVCL_1503), NCI-H510A small cell lung carcinoma (HTB-184, RRID:CVCL_1565), NCI-H1417 (CRL-5869, RRID:CVCL_1469), and NCI-H196 small cell lung carcinoma (CRL-5823, RRID:CVCL_1509). Dr. Peter Houghton (Greehey Children's Cancer Research Institute, University of Texas Health Science Center, San Antonio, TX) provided Rh-18 rhabdomyosarcoma (RRID:CVCL_1659). Pooled donor human umbilical vein endothelial cells (HUVEC, Lonza, cat. CC-2519) and human mesenchymal stem cells (hMSC, Lonza, cat. PT-2501) were purchased from Lonza (Walkersville, MD).
Cell Culture. […]

Work on `O=C(c1ccc(F)c(F)c1Nc1ccc(I)cc1F)N1CC(O)([C@@H]2CCCCN2)C1` + Cc1c(S(C)(=O)=O)c(-c2cc(F)cc(N3CCN(c4ccc(NS(=O)(=O)c5ccc(NC(CCN6CCC(C(=O)OCCCP(=O)(O)O)CC6)CSc6ccccc6)c(S(=O)(=O)C(F)(F)F)c5)cc4)CC3)c2)c(-c2ccc(Cl)cc2)n1C(C)C yielded an IC50 (second compound 0.0316 µM) of over 1000 nM, an IC50 (second compound 0.1 µM) of over 1000 nM and an IC50 (second compound 0.316 µM) of over 1000 nM. It also gave an IC50 (second compound 1 µM) of over 1000 nM, an IC50 (second compound 3.16 µM) of over 1000 nM and an IC50 (second compound 10 µM) of over 1000 nM. It also gave a viability, T/C (second compound 0.0316 µM, first compound 0.00316 µM) of 82.4%, a viability, T/C (second compound 0.0316 µM, first compound 0.01 µM) of 88% and a viability, T/C (second compound 0.0316 µM, first compound 0.0316 µM) of 85.4%. For the same compound, the viability, T/C (second compound 0.0316 µM, first compound 0.1 µM) was 86.8%, the viability, T/C (second compound 0.0316 µM, first compound 0.316 µM) was 93% and the viability, T/C (second compound 0.0316 µM, first compound 1 µM) was 89%. The viability, T/C (second compound 0.1 µM, first compound 0.00316 µM) was 96.5%, the viability, T/C (second compound 0.1 µM, first compound 0.01 µM) was 109% and the viability, T/C (second compound 0.1 µM, first compound 0.0316 µM) was 96%. It also gave a viability, T/C (second compound 0.1 µM, first compound 0.1 µM) of 84.6%, a viability, T/C (second compound 0.1 µM, first compound 0.316 µM) of 91.8% and a viability, T/C (second compound 0.1 µM, first compound 1 µM) of 91.1%. For the same compound, the viability, T/C (second compound 0.316 µM, first compound 0.00316 µM) was 99.8%, the viability, T/C (second compound 0.316 µM, first compound 0.01 µM) was 93.5% and the viability, T/C (second compound 0.316 µM, first compound 0.0316 µM) was 86.2%. The viability, T/C (second compound 0.316 µM, first compound 0.1 µM) was 89.6%, the viability, T/C (second compound 0.316 µM, first compound 0.316 µM) was 83.8% and the viability, T/C (second compound 0.316 µM, first compound 1 µM) was 84%. The viability, T/C (second compound 1 µM, first compound 0.00316 µM) was 89.9%, the viability, T/C (second compound 1 µM, first compound 0.01 µM) was 87.2% and the viability, T/C (second compound 1 µM, first compound 0.0316 µM) was 88%. It also gave a viability, T/C (second compound 1 µM, first compound 0.1 µM) of 87.7%, a viability, T/C (second compound 1 µM, first compound 0.316 µM) of 94.8% and a viability, T/C (second compound 1 µM, first compound 1 µM) of 85%. It also gave a viability, T/C (second compound 3.16 µM, first compound 0.00316 µM) of 104%, a viability, T/C (second compound 3.16 µM, first compound 0.01 µM) of 97.1% and a viability, T/C (second compound 3.16 µM, first compound 0.0316 µM) of 89.3%. For the same compound, the viability, T/C (second compound 3.16 µM, first compound 0.1 µM) was 88.6%, the viability, T/C (second compound 3.16 µM, first compound 0.316 µM) was 83.3% and the viability, T/C (second compound 3.16 µM, first compound 1 µM) was 78.1%. The viability, T/C (second compound 10 µM, first compound 0.00316 µM) was 173%, the viability, T/C (second compound 10 µM, first compound 0.01 µM) was 175% and the viability, T/C (second compound 10 µM, first compound 0.0316 µM) was 157%. The viability, T/C (second compound 10 µM, first compound 0.1 µM) was 132%, the viability, T/C (second compound 10 µM, first compound 0.316 µM) was 142% and the viability, T/C (second compound 10 µM, first compound 1 µM) was 131%.
